Assays:
[1] = system: Agarabi CHO (ATCC® CRL-3440™); settings: 120 μM added every 48 hrs, 7 day batch culture, CD FortiCHO + 8 mM L-glutamine
Procedure: For this experiment, a transgenic CHO cell line, Agarabi CHO (ATCC® CRL-3440™), was grown in CD FortiCHO medium supplemented with 8 mM L-glutamine at 37° C., 8% CO2, at a shaking speed of 130 RPM. Batch culture of 6 flasks was maintained for 7 days where 3 flasks represent technical replicates for the control set and 3 flasks represent technical replicates for the treatment set. The flasks were seeded with 3E5 viable cells/mL on day 0 and to induce oxidative stress, hydrogen peroxide was added every 48 hrs to the treatment set with a final concentration of 120 μM. Cell count, cell viability, and heterologous protein production were measured every 2 days and cell pellets were collected for both control and treatment set on day 7.

[2] = system: Agarabi CHO (ATCC® CRL-3440™); settings: FDR corrected p-value <0.05 and methylation change greater than 25% between groups; cell pellets day 7
Procedure: Genomic DNA was purified from the collected cell pellets using DNeasy Blood & Tissue Kit (Qiagen) and was quantified using PicroGreen or NanoDrop™ 2000. The genomic DNA (500 ng) from the control and treatment set were used to prepare libraries for Whole Genome Bisulfite Sequencing (WGBS). The sequencing of the libraries was performed by a third party on a NovaSeq platform which generated 125 GB of data per sample.
Raw sequencing data were conducted quality control (fastqc) 1, sequencing adaptors trimming (TrimGalore) 2, and alignment with Bismark3. CMV promoter combined with CHOK1-GS (Cricetulus griseus) genome was used as a reference genome.
Bismark was also used for removing duplicated reads and extracting methylation counts from alignment output.
Since regulated methylation targets are most commonly clustered into short regions, DMRfinder4 was used to perform a modified single-linkage clustering of methylation sites.
Differential methylation analysis was performed using MethylKit5 between the control and treatment groups. Logistic regression was used to determine the differential methylation across all regions, and the sliding linear model (SLIM) 6 method to do FDR correction.

[3] = system: Agarabi CHO (ATCCR CRL-3440™); assay: Adaptation of CHO cells with media supplement, batch culture (cell count, viability, protein production); assay type: cell-based, Cricetulus griseus; settings: 1 mg/L, adapted for 2 weeks, 7 day batch culture, CD FortiCHO + 8 mM L-glutamine
Procedure: For this experiment, a transgenic CHO cell line, Agarabi CHO (ATCCR CRL-3440™), was adapted for 2 weeks in CD FortiCHO medium supplemented with 8 mM L-glutamine & 1 mg/L human insulin-like growth factor 1 (IGF-1) at 37° C., 8% CO2, at a shaking speed of 130 RPM. Batch culture of 6 flasks was maintained for 7 days where 3 flasks represent technical replicates for the control set (without IGF-1 adaptation) and 3 flasks represent technical replicates for the IGF-1 adapted set. The flasks were seeded with 3E5 viable cells/mL on day 0 and 1 mg/L Insulin Growth Factor was added to the adapted set. Cell count, cell viability, and protein production were measured every 2 days and cell pellets were collected for both control and treatment set on day 7.

[4] = system: Agarabi CHO (ATCCR CRL-3440™); assay: WGBS differential methylation analysis, IGF-1 adapted vs control; assay type: cell-based, Cricetulus griseus; settings: FDR corrected p-value <0.05 and methylation change greater than 25% between groups; cell pellets day 7
Procedure: With a maximum distance between CpG sites of 100 bp, 2048904 genomic regions were found for IGF-1 adapted samples.
Regions with FDR corrected p-value <0.05 and methylation change greater than 25% between groups were determined as differentially methylated regions (DMRs), which was 289 for IGF-1 adapted samples listed in Table 2.

| Compound | cell viability compared to control set [1] | growth rate compared to control set [1] | heterologous protein productivity compared to control set [1] | number of differentially methylated regions (DMRs) [2] | growth rate compared to control set [3] | heterologous protein productivity compared to control set [3] | viability compared to control set [3] | number of differentially methylated regions (DMRs) [4] |
| --- | --- | --- | --- | --- | --- | --- | --- | --- |
| OO [hydrogen peroxide] | reduced | reduced | slight increase | 122 |  |  |  |  |
| IGF-1: human insulin-like growth factor 1, media supplement for CHO cells |  |  |  |  | no significant effect | doubled | no significant effect | 289 |

Reference: US20260250741A1, “DEVELOPMENT OF CELL MEDIUM AND FEED ON MAMMALIAN CELLS” (Evonik Operations GmbH, priority 2023, published 2026)
